Literature values as cited in patent US9364497B2, “Treatment of cognitive disorders” (Isis Innovation Limited, priority 2010, dated 2016).

What was measured:
[1] = system: normal participants with baseline tHcy levels >13 μmol/L; conditions: 0.8 mg/d for three years
[2] = system: subjects with mild cognitive impairment; conditions: MCI
[3] = system: mild cognitive impairment; conditions: MCI; over four years

Nc1nc2ncc(CNc3ccc(C(=O)N[C@@H](CCC(=O)O)C(=O)O)cc3)nc2c(=O)[nH]1 [folic acid]
effect on cognitive tests [1]: beneficial effect on several cognitive tests

COc1ccc2c3c1O[C@H]1C[C@@H](O)C=C[C@@]31CCN(C)C2 [galantamine]
deaths in treatment groups versus placebo [2]: significantly greater number of deaths

CCN(C)C(=O)Oc1cccc([C@H](C)N(C)C)c1 [rivastigmine]
benefit on cognitive function [3]: no significant benefit
benefit on the progression rate to Alzheimer's Disease [3]: no significant benefit
